Measurements reported in ChEMBL document CHEMBL5226302, “Small-Molecule Inhibitors Targeting the Canonical WNT Signaling Pathway for the Treatment of Cancer” (J Med Chem, 2021).
Values after ≈ are worked out from the molar mass of the structure shown.

Assays:
[1] = target: T1, Poly [ADP-ribose] polymerase tankyrase-2 (Homo sapiens, UniProt Q9H2K2); test: Inhibition of TNKS2 (unknown origin)
T1 sequence (Q9H2K2 whole entry): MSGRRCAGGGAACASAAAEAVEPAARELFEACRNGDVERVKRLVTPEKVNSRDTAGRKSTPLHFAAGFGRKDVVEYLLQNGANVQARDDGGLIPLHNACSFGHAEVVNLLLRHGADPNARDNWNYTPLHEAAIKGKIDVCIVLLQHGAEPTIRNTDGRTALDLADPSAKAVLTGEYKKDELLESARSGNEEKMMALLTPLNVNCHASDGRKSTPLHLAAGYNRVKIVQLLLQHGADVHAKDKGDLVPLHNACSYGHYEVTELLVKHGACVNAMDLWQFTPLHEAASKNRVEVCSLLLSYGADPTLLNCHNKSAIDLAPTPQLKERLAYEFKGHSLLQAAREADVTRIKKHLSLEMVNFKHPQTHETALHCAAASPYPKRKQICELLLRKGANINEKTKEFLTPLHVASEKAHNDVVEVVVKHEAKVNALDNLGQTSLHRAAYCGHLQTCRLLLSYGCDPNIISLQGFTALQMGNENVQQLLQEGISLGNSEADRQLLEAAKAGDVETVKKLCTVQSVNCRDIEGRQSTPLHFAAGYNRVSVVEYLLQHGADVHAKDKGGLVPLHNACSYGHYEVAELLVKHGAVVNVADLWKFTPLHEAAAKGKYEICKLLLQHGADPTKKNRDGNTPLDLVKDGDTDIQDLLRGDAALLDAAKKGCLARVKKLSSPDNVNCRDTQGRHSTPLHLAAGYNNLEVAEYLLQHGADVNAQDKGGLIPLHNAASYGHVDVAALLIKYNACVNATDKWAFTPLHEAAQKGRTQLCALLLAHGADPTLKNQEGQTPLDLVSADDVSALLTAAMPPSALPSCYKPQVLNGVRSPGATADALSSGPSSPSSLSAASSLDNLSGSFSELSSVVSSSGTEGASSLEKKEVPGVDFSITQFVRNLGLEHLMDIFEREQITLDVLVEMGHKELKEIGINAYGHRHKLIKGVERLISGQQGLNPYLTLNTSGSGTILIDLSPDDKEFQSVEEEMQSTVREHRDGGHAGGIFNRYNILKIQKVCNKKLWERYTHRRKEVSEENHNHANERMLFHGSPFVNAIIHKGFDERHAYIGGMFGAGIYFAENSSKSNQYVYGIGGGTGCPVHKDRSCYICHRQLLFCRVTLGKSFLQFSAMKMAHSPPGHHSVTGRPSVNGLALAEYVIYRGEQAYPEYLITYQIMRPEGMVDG

[2] = Plasma concentration in mouse at 5 mg/kg, po measured after 24 hr; type: ADME, organism-based
[3] = Inhibition of Wnt pathway (unknown origin); design: species or system Homo sapiens
[4] = Solubility of compound at pH 7.4; type: physicochemical; conditions: buffer
HeLa = test: Antiproliferative activity against human HeLa cell line assessed as cell growth inhibition; type: functional, cell-based
HEK293 = test: Antitumor activity against human HEK293 cells xenografted in […] assessed as tumor growth inhibition at 10 mg/kg relative to control; type: functional; conditions: read-out: TGI
[5] = Oral bioavailability in mouse at 10 mg/kg; type: ADME, organism-based; conditions: in vivo
[6] = Inhibition of TBC (unknown origin); design: species or system Homo sapiens
[7] = Half life of compound in PBS buffer; type: physicochemical
[8] = target: T1, Poly [ADP-ribose] polymerase tankyrase-2; test: Binding affinity to human TNKS2 ARC4 assessed as dissociation constant
[9] = Solubility of the compound at pH 7.4; type: physicochemical; conditions: buffer
[10] = target: T2, Poly [ADP-ribose] polymerase tankyrase-1 (Homo sapiens, UniProt O95271); test: Inhibition of TNKS1 (unknown origin)
T2 sequence (O95271 whole entry): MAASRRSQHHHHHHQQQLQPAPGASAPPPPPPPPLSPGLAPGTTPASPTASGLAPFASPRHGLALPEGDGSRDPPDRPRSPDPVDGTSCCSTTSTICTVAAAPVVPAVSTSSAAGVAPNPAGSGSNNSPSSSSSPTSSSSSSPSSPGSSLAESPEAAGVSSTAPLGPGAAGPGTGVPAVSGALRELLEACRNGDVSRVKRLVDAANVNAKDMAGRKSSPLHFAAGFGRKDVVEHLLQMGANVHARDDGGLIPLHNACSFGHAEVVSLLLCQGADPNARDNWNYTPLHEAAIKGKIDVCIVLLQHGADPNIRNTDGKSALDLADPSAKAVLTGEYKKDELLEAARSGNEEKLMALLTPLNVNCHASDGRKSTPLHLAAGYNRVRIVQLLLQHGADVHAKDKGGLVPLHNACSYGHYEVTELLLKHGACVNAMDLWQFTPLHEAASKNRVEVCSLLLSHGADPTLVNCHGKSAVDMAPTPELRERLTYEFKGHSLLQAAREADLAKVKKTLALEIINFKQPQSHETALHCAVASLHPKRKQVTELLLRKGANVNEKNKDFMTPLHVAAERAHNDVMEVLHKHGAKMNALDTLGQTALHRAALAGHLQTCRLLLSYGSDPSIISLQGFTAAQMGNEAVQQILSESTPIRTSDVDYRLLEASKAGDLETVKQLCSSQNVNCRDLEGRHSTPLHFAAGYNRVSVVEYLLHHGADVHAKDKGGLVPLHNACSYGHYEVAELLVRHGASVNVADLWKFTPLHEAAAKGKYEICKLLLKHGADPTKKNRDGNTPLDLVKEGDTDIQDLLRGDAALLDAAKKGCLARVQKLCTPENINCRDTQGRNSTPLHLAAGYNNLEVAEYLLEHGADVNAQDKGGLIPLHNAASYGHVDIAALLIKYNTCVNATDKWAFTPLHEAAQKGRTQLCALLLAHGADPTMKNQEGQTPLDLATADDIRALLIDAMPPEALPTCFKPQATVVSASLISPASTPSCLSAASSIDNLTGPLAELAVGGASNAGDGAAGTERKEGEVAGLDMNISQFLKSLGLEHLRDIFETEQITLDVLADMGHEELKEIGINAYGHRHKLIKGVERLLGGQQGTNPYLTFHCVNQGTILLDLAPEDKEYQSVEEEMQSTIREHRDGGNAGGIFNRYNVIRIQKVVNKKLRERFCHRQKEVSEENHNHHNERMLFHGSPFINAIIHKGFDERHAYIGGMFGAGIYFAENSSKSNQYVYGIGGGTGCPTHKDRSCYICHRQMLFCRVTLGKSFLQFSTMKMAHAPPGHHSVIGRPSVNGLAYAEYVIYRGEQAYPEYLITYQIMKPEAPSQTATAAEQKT

[11] = target: T1, Poly [ADP-ribose] polymerase tankyrase-2; test: Inhibition of human TNKS2 (873 to 1162 residues) measured after 15 hrs in presence of NAD+ by fluorescence assay
[12] = target: T2, Poly [ADP-ribose] polymerase tankyrase-1; test: Inhibition of human TNKS1 (1030 to 1317 residues) measured after 20 hrs
cells = conditions: Homo sapiens, COLO 320DM

COc1ccc(C2(CNC(=O)c3ccc(NC(=O)c4ccco4)cc3)CCOCC2)cc1
IC50 [1]: 830 nM

Cc1cc(-c2ccc(CC(=O)Nc3ccc(-c4cccnc4)cc3)cc2)ccn1
concentration at 24 h [2]: 1 nM
IC50 [3]: 0.074 nM

COc1ccccc1N1CCN(c2nc3c(c(=O)[nH]2)CCCC3)CC1
solubility [4]: 72 µg/mL (≈ 211 µM)

O=C(CSc1nc2c(c(=O)n1-c1ccccc1)SCC2)Nc1ccc(-c2ccccc2)cn1
EC50 (HeLa): 0.5 nM

Cc1cc(-c2ccc(CNC(=O)c3ccc4c(c3)[nH]c3ccccc34)cc2F)ccn1
IC50 [3]: 0.5 nM

Cn1c(=O)c2c(ncn2CC(=O)Nc2ccc(-c3ccccc3)nn2)n(C)c1=O [ETC-159]
inhibition in vivo at 10 mg/kg (HEK293): 94%
bioavailability [5]: 100%

N#Cc1ccc(Oc2ccc(NC(=O)CCSc3nc4ccccc4c(=O)[nH]3)cc2)cc1
IC50 [6]: 1.9 nM
half-life [7]: 2.8 h

CC(=O)N[C@@H](CCCNC(=N)N)C(=O)N[C@@H](CCC(=O)O)C(=O)N[C@H]1CCCCn2cc(nn2)CCCCCc2cn(nn2)CCCC[C@H](C(=O)N[C@H](CCC(=O)O)C(N)=O)NC(=O)CNC(=O)[C@@H](CC(=O)O)NC(=O)CNC1=O
Kd [8]: 2800 nM

CN1C(=O)C2=C(C1=O)N(CC(=O)Nc1ccc(-c3nccs3)cc1)CCC2
solubility [9]: 15 µg/mL (≈ 39.2 µM)

Cc1ccc2nc(NC(=O)CSc3nc4c(c(=O)n3-c3ccccc3)SCC4)sc2c1
IC50 [3]: 27 nM

O=C(CCC1CCCC1)Nc1nnc2n1CCS2
IC50 [10]: 1900 nM

CN(C)c1ccc2c(-c3ccc(C(=O)NCCCCCC(=O)N[C@@H](CCCNC(=N)N)C(=O)N[C@@H](CCC(=O)O)C(=O)N[C@H]4CCn5cc(nn5)-c5cc(C(=O)O)cc(c5)C5=CN(CC[C@@H](C(=O)N[C@@H](CCC(=O)O)C(N)=O)NC(=O)CNC(=O)[C@H](CC(=O)O)NC(=O)CNC4=O)NN5)cc3C(=O)[O-])c3ccc(=[N+](C)C)cc-3oc2c1
Kd [8]: 440 nM

CN1CCCc2c1cc(-c1ccc(Br)cc1)[nH]c2=O
IC50 [11]: 6.1 nM
IC50 [12]: 423 nM

Nc1nonc1NC(=O)Cn1c2ccccc2c2nc3nonc3nc21
IC50 (cells): 31000 nM

COc1ccccc1NC(=O)c1ccc(NC(=O)CCc2nc3ccccc3c(=O)[nH]2)cc1
IC50 [6]: 160 nM
half-life [7]: 0.667 h

Cc1cc(-c2ccc(CC(=O)Nc3ccc4c(c3)[nH]c3ccccc34)cc2)ccn1
IC50 [3]: 2.3 nM

O=C(O)CCCn1c2ccccc2c2nc3nonc3nc21
IC50 (cells): 15000 nM
